Laboratory results: ChEMBL document CHEMBL1649380, “Prediction of drug intestinal absorption by new linear and non-linear QSPR” (Eur J Med Chem, 2011)

Assay: Drug absorption in human assessed as human intestinal absorption rate
Type: ADME, tissue-based, Intestine

Row | Structure (SMILES) | log10(%HIA +10)
1 | CCCCC(=O)N(Cc1ccc(-c2ccccc2-c2nnn[nH]2)cc1)[C@H](C(=O)O)C(C)C | 1.813
2 | CCOC(=O)[C@H](CCc1ccccc1)N[C@@H](C)C(=O)N1[C@H](C(=O)O)C[C@@H]2CCC[C@@H]21 | 1.845
3 | COc1ccccc1N1CCN(CCCNc2cc(=O)n(C)c(=O)n2C)CC1 | 1.945
4 | Cc1cccc(C)c1NC(=O)NCCCNC(C)C | 1.909
5 | CCN(CC)C(=S)SSC(=S)N(CC)CC | 2.029
6 | CC(=O)NCCCS(=O)(=O)O [ACAMPROSATE] | 1.322
7 | C[C@H]1O[C@H](O[C@H]2[C@H](O)[C@@H](O)[C@@H](O[C@H]3[C@H](O)[C@@H](O)C(O)O[C@@H]3CO)O[C@@H]2CO)[C@H](O)[C@@H](O)[C@@H]1N[C@H]1C=C(CO)[C@@H](O)[C@H](O)[C@H]1O (some centres undefined) [ACARBOSE] | 1.079
8 | CCCC(=O)Nc1ccc(OCC(O)CNC(C)C)c(C(C)=O)c1 (centres undefined) [ACEBUTOLOL] | 1.999
9 | CC(=O)Nc1ccc(O)cc1 [ACETAMINOPHEN] | 1.978
10 | Nc1ncnc2c1ncn2CCOCP(=O)(O)O [ADEFOVIR] | 1.342
11 | C=CCNc1nc(NCC=C)nc(N2CCN(C(c3ccc(F)cc3)c3ccc(F)cc3)CC2)n1 [ALMITRINE] | 2
12 | CN(C)CCc1c[nH]c2ccc(CS(=O)(=O)N3CCCC3)cc12 [ALMOTRIPTAN] | 1.929
13 | C=CCc1ccccc1OCC(O)CNC(C)C (centres undefined) [ALPRENOLOL] | 2.016
14 | N=C(N)NC(=O)c1nc(Cl)c(N)nc1N [AMILORIDE] | 1.778
15 | Cc1c(N(C)C)c(=O)n(-c2ccccc2)n1C [AMINOPYRINE] | 2.041
16 | CC1(C)S[C@@H]2[C@H](NC(=O)[C@H](N)c3ccc(O)cc3)C(=O)N2[C@H]1C(=O)O [AMOXICILLIN] | 2.016
17 | C[C@@H]1[C@H](O)[C@@H](C)/C=C/C=C/C=C/C=C/C=C/C=C/C=C/[C@H](O[C@@H]2O[C@H](C)[C@@H](O)[C@H](N)[C@@H]2O)C[C@@H]2O[C@](O)(C[C@@H](O)C[C@@H](O)[C@H](O)CC[C@@H](O)C[C@@H](O)CC(=O)O[C@H]1C)C[C@H](O)[C@H]2C(=O)O [AMPHOTERICIN B] | 1.176
18 | N#C[C@H](O[C@@H]1O[C@H](CO[C@@H]2O[C@H](CO)[C@@H](O)[C@H](O)[C@H]2O)[C@@H](O)[C@H](O)[C@H]1O)c1ccccc1 [AMYGDALIN] | 1.176
19 | O=C1CN2Cc3c(ccc(Cl)c3Cl)N=C2N1 [ANAGRELIDE] | 1.903
20 | Cc1cc(=O)n(-c2ccccc2)n1C [ANTIPYRINE] | 2.041
21 | NCC[C@H](O)C(=O)N[C@@H]1C[C@H](N)[C@@H](O[C@H]2O[C@H](CN)CC[C@H]2N)[C@H](O)[C@H]1O[C@H]1O[C@H](CO)[C@@H](O)[C@H](N)[C@H]1O [ARBEKACIN] | 1
22 | CC(=O)Oc1ccccc1C(=O)O [ASPIRIN] | 2.041
23 | CC(C)NCC(O)COc1ccc(CC(N)=O)cc1 (centres undefined) [ATENOLOL] | 1.785
24 | CN1[C@@H]2CC[C@H]1C[C@@H](OC(=O)C(CO)c1ccccc1)C2 (some centres undefined) [ATROPINE] | 2.033
25 | CC[C@H]1OC(=O)[C@H](C)[C@@H](O[C@H]2C[C@@](C)(OC)[C@@H](O)[C@H](C)O2)[C@H](C)[C@@H](O[C@@H]2O[C@H](C)C[C@H](N(C)C)[C@H]2O)[C@](C)(O)C[C@@H](C)CN(C)[C@H](C)[C@@H](O)[C@]1(C)O [AZITHROMYCIN] | 1.663
26 | CC1(C)S[C@@H]2[C@H](NC(=O)[C@H](NC(=O)N3CCNC3=O)c3ccccc3)C(=O)N2[C@H]1C(=O)O [AZLOCILLIN] | 1
27 | C[C@H]1[C@H](NC(=O)/C(=N\OC(C)(C)C(=O)O)c2csc(N)n2)C(=O)N1S(=O)(=O)O [AZTREONAM] | 1.041
28 | CCOC(=O)[C@H](CCc1ccccc1)N[C@H]1CCc2ccccc2N(CC(=O)O)C1=O [BENAZEPRIL] | 1.672
29 | NC(CO)C(=O)NNCc1ccc(O)c(O)c1O (centres undefined) [BENSERAZIDE] | 1.903
